Source: PubChem BioAssay AID248 (DTP/NCI, 2004)
Inconclusive results and toxic doses are left out. Rule as the data show it: active = T/C of 150% or more; inactive = T/C below 125%.

Tested on: L1210 leukemia ip in BDF1 mice, survival T/C
Assay: NCI In Vivo Anticancer Drug Screen. Data for tumor model L1210 Leukemia (intraperitoneal) in B6D2F1 (BDF1) mice
Conditions: endpoint: mean survival time, vehicle: Klucel (hydroxypropylcellulose) (HPC), higher = longer survival
How it was run: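 Survival endpoint. Drug-treated group vs vehicle group, expressed as T divided by C. Tumor passaged by transplantation.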

Measured: T/C

O=C(Oc1ccc(Cl)cc1)c1ccc(Cl)cc1
inactive: dose: 50.0 mg/kg/injection, schedule: Q01DX009 (ip) 101 % of control | dose: 100.0 mg/kg/injection, schedule: Q01DX009 (ip) 94 % of control | dose: 100.0 mg/kg/injection, schedule: Q04DX003 (ip) 101 % of control | dose: 200.0 mg/kg/injection, schedule: Q01DX009 (ip) 95 % of control | dose: 200.0 mg/kg/injection, schedule: Q04DX003 (ip) 99 % of control | dose: 400.0 mg/kg/injection, schedule: Q04DX003 (ip) 92 % of control
